Activity calls are given as the source filed them.
Columns and labels:
[1] = biological target: Tyrosine-protein kinase BTK (Homo sapiens, UniProt Q06187)
Ephrin type-B receptor 3 = biological target: T1, Ephrin type-B receptor 3 (Homo sapiens, UniProt P54753)
T1 sequence (P54753 whole entry): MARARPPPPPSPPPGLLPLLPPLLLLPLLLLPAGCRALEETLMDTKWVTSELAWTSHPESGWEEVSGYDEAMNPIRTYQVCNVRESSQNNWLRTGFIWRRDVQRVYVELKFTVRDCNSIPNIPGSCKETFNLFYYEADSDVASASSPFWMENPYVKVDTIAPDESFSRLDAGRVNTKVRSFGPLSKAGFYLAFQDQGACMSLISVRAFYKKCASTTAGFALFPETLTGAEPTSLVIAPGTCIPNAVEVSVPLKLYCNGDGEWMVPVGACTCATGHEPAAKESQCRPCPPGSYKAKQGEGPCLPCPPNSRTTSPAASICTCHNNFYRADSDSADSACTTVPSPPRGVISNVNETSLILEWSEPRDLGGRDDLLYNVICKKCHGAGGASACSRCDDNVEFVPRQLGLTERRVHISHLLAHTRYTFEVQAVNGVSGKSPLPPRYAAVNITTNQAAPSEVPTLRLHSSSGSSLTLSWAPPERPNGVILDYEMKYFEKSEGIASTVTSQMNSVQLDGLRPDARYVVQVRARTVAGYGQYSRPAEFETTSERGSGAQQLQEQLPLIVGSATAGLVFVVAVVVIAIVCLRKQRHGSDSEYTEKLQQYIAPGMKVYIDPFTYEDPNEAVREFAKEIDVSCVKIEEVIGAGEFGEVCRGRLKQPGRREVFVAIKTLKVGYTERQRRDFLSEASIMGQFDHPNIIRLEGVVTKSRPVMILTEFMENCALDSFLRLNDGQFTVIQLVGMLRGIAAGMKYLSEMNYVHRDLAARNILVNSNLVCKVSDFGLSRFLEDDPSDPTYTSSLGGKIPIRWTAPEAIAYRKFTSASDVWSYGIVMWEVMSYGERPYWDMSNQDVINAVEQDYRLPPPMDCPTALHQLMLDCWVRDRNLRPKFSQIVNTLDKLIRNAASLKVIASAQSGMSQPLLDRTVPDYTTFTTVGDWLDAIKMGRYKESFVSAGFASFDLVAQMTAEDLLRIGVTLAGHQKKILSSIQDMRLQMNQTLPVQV

[2] = biological target: Myosin light chain kinase, smooth muscle (Homo sapiens, UniProt Q15746)
[3] = biological target: T2, Serine/threonine-protein kinase Nek2 (Homo sapiens, UniProt P51955)
T2 sequence (P51955 whole entry): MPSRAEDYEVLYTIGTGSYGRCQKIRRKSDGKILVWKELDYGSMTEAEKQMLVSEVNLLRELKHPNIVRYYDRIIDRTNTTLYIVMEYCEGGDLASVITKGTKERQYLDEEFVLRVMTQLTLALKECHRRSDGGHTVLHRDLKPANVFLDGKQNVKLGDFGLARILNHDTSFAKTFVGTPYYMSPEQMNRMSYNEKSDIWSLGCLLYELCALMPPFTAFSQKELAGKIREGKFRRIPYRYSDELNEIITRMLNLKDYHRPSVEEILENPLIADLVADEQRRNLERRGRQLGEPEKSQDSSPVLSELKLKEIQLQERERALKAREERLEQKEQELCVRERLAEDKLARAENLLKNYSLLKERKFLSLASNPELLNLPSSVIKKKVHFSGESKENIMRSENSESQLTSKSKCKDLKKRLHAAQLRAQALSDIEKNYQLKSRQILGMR

[4] = biological target: T3, Serine/threonine-protein kinase TAO2 (Homo sapiens, UniProt Q9UL54)
T3 sequence (Q9UL54 whole entry): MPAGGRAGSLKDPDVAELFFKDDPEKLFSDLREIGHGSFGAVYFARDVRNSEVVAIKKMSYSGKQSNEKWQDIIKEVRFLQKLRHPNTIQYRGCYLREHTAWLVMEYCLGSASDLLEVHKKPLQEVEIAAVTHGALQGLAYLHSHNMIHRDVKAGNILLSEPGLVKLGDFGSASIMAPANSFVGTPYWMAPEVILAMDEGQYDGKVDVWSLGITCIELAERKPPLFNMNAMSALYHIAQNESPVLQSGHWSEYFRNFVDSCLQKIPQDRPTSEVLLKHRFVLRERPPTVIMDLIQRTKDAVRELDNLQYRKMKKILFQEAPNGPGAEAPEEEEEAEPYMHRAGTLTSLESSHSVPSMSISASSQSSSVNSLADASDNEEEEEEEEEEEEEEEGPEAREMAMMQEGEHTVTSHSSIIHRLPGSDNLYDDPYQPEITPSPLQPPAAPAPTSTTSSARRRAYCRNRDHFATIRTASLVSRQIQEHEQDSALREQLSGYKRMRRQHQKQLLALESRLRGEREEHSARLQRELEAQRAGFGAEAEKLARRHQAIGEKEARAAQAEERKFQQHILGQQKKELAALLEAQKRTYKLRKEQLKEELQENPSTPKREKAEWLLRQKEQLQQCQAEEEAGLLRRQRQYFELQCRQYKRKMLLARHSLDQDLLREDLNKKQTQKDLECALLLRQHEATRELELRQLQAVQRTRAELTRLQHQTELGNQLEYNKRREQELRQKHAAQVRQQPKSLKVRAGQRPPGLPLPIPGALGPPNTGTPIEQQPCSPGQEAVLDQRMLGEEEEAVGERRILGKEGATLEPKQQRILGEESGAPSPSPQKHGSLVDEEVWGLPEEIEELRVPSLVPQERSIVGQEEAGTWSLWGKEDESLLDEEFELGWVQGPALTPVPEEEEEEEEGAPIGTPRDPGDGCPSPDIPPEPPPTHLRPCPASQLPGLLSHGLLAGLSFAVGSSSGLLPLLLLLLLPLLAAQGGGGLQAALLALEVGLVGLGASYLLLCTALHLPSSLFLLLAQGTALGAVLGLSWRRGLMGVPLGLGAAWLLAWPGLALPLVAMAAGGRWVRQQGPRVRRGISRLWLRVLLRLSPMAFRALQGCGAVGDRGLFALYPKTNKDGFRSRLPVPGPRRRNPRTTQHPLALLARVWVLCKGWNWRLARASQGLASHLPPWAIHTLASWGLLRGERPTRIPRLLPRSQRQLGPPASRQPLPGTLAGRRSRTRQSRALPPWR

[5] = biological target: cAMP-dependent protein kinase type II-alpha regulatory subunit (Homo sapiens, UniProt P13861)
Further: in the data inactive means no Kd found up to 30 µM.

Chain of cAMP-dependent protein kinase type II-alpha regulatory subunit (P13861 whole entry): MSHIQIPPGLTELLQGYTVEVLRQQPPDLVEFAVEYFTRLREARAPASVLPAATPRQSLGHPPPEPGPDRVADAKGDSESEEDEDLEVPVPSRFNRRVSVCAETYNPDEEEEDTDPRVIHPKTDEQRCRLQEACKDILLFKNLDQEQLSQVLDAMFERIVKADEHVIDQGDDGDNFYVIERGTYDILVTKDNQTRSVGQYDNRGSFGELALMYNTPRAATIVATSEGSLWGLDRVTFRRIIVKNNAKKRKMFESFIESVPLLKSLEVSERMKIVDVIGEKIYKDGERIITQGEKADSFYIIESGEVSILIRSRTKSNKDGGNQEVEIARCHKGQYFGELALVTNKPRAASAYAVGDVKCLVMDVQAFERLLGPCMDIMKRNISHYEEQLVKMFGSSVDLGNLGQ
Chain of Myosin light chain kinase, smooth muscle (Q15746 whole entry): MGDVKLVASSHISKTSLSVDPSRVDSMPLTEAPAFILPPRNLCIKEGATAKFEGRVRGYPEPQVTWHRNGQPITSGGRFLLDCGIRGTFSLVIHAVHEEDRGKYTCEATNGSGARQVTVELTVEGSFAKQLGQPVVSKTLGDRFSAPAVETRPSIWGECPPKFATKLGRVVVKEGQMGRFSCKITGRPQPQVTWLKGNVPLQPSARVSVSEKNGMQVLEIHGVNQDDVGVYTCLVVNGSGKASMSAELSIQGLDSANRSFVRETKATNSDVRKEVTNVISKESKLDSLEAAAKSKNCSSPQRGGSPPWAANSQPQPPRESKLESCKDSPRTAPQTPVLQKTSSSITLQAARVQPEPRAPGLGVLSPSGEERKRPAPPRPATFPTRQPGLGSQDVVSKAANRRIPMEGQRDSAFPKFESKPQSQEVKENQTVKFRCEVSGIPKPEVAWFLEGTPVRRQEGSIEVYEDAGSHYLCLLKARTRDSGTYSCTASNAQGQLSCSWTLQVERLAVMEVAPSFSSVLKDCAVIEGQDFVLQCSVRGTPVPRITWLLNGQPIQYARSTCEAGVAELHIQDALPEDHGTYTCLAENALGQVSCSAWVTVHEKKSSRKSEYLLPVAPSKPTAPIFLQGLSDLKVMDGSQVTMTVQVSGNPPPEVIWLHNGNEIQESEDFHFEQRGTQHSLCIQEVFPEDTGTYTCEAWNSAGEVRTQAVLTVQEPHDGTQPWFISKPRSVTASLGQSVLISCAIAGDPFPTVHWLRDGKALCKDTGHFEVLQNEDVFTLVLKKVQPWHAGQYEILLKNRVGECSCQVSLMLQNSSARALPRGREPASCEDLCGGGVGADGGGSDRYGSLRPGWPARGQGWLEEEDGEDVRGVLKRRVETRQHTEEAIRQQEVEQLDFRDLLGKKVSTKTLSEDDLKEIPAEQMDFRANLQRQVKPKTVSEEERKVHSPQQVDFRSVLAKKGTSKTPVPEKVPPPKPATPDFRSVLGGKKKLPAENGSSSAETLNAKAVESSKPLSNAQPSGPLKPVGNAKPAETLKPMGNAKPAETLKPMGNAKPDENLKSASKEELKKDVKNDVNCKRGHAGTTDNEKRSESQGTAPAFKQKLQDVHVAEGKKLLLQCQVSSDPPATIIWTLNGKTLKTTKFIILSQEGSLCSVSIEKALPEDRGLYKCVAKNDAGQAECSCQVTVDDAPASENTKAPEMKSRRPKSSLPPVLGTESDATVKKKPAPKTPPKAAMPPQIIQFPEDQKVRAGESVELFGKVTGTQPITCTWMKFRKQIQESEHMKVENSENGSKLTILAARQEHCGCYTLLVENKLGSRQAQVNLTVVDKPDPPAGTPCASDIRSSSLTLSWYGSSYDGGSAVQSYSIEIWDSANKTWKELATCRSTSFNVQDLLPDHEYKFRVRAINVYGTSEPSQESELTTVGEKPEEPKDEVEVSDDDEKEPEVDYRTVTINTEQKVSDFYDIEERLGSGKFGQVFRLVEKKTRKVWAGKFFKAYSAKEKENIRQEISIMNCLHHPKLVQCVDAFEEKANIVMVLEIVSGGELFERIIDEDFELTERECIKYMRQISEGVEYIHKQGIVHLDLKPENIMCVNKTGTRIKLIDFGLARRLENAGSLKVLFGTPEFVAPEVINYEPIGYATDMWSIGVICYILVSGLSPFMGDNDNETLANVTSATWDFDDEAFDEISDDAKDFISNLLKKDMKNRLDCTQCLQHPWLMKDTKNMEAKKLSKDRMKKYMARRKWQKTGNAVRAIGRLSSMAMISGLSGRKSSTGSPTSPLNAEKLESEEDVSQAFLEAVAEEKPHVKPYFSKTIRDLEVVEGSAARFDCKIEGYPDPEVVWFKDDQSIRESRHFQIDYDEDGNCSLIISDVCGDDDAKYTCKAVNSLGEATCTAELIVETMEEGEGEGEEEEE
Chain of Tyrosine-protein kinase BTK (Q06187 whole entry): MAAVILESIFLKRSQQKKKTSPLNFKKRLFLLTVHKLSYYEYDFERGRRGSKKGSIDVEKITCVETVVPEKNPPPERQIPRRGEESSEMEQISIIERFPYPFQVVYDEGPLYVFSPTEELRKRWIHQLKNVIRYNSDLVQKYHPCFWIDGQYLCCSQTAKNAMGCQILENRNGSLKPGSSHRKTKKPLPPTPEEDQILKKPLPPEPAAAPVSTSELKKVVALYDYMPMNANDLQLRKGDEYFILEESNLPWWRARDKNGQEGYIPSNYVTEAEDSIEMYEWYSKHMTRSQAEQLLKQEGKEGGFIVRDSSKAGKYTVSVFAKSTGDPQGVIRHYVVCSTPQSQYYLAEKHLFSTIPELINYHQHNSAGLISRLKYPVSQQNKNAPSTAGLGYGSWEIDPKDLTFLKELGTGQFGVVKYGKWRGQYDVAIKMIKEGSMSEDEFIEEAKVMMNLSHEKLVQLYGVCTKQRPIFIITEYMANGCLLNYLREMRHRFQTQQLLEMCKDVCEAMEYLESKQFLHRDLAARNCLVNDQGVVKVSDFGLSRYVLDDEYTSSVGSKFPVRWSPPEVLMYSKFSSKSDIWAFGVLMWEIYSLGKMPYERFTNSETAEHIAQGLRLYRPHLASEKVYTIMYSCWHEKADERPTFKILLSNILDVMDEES

Kd [1]	Kd (Ephrin type-B receptor 3)	Kd [2]	Kd [3]	Kd [4]	Kd [5]	Structure (SMILES)
> 30 µM (inactive)	> 30 µM (inactive)	> 30 µM (inactive)	> 30 µM (inactive)	> 30 µM (inactive)	> 30 µM (inactive)	Cn1c(=O)c(F)c(Nc2ccc(I)cc2F)c2c(=O)n(C[C@@H](O)CO)cnc21 [TAK-733]
> 30 µM (inactive)	> 30 µM (inactive)	> 30 µM (inactive)	> 30 µM (inactive)	> 30 µM (inactive)	> 30 µM (inactive)	COc1cccc2cc(-c3nc([C@H]4CC[C@H](C(=O)O)CC4)n4ncnc(N)c34)[nH]c12 [OSI-027]
> 30 µM (inactive)	> 30 µM (inactive)	> 30 µM (inactive)	> 30 µM (inactive)	> 30 µM (inactive)	> 30 µM (inactive)	Cc1cc(C(=O)Nc2cc(Oc3ccc4nc(NC(=O)C5CC5)cn4n3)ccc2C)n(C)n1 [TAK-593]
> 30 µM (inactive)	> 30 µM (inactive)	0.003 µM	> 30 µM (inactive)	> 30 µM (inactive)	> 30 µM (inactive)	NC(=O)c1ccc(N(C(N)=O)c2c(F)cccc2F)nc1-c1ccc(F)cc1F [VX-702]

The remaining lines, values behind:

Structure (SMILES)	Kd [1]	Kd (Ephrin type-B receptor 3)	Kd [2]	Kd [3]	Kd [4]	Kd [5]
C=CCN(/C=C1/C(=O)O[C@H](COC)[C@@]2(C)C1=C(O)C(=O)C1=C2[C@H](OC(C)=O)C[C@]2(C)C(=O)CC[C@@H]12)CC=C [SONOLISIB]	> 30 µM (inactive)	> 30 µM (inactive)	> 30 µM (inactive)	> 30 µM (inactive)	> 30 µM (inactive)	> 30 µM (inactive)
CCc1nc(C(N)=O)c(Nc2ccc(N3CCC(N4CCN(C)CC4)CC3)c(OC)c2)nc1NC1CCOCC1 [GILTERITINIB]	> 30 µM (inactive)	> 30 µM (inactive)	0.188 µM (active)	0.247 µM	2.09 µM (active)	> 30 µM (inactive)
COc1cc2ncnc(Nc3ccc(O)cc3)c2cc1OC [WHI-P131]	> 30 µM (inactive)	> 30 µM (inactive)	> 30 µM (inactive)	> 30 µM (inactive)	> 30 µM (inactive)	> 30 µM (inactive)
O[C@H]1CC[C@H](Nc2ncc3nc(Nc4c(F)cc(F)cc4F)n([C@H]4CCOC4)c3n2)CC1 [TANZISERTIB]	> 30 µM (inactive)	> 30 µM (inactive)	2.63 µM	> 30 µM (inactive)	> 30 µM (inactive)	> 30 µM (inactive)
Cc1ccc(C(=O)Nc2ccc(Oc3cc4cnn(C)c4cc3-c3cn[nH]c3)c(F)c2)c(=O)n1-c1ccc(F)cc1 [MERESTINIB]	> 30 µM (inactive)	> 30 µM (inactive)	> 30 µM (inactive)	> 30 µM (inactive)	> 30 µM (inactive)	> 30 µM (inactive)
Cn1cc(-c2[nH]c3cc(NC(=O)[C@H](N)C4CCCCC4)cc4c3c2C=NNC4=O)cn1	2.84 µM (active)	> 30 µM (inactive)	> 30 µM (inactive)	> 30 µM (inactive)	> 30 µM (inactive)	> 30 µM (inactive)
C=CC(=O)Nc1cc(Nc2nccc(-c3cn(C)c4ccccc34)n2)c(OC)cc1N(C)CCN(C)C [OSIMERTINIB]	0.525 µM (active)	> 30 µM (inactive)	> 30 µM (inactive)	> 30 µM (inactive)	> 30 µM (inactive)	> 30 µM (inactive)
Cc1cc(-c2cc(OC(=O)c3ccccc3)ccc2Cl)cc2nnc(Nc3ccc(OCCN4CCCC4)cc3)nc12 [TG100-801]	> 30 µM (inactive)	> 30 µM (inactive)	> 30 µM (inactive)	> 30 µM (inactive)	> 30 µM (inactive)	> 30 µM (inactive)
CNC(=O)c1ccc(Nc2ncc(C(F)(F)F)c(NCc3nccnc3N(C)S(C)(=O)=O)n2)cc1 [DEFACTINIB]	> 30 µM (inactive)	> 30 µM (inactive)	> 30 µM (inactive)	> 30 µM (inactive)	> 30 µM (inactive)	> 30 µM (inactive)
CN1CCN(c2nc(C3=C(c4c[nH]c5ccccc45)C(=O)NC3=O)c3ccccc3n2)CC1 [SOTRASTAURIN]	> 30 µM (inactive)	> 30 µM (inactive)	> 30 µM (inactive)	> 30 µM (inactive)	> 30 µM (inactive)	> 30 µM (inactive)
c1cc(OCCN2CCCCC2)cc(-c2n[nH]c3ccc(-c4nc[nH]n4)cc23)c1 [CC-401]	> 30 µM (inactive)	> 30 µM (inactive)	> 30 µM (inactive)	> 30 µM (inactive)	> 30 µM (inactive)	> 30 µM (inactive)

Reference: ChEMBL document CHEMBL3991601, “The target landscape of clinical kinase drugs” (Science, 2017)
